Patent publication US12384746B2, “Physics-driven discovery of novel small therapeutic compounds for use as a BCL-2 inhibitor” (BAHCESEHIR UNIVERSITESI, priority 2020, dated 2025)
Peptide text beside a SMILES is read from it. * marks the point of attachment. Boc = CC(C)(C)OC(=O)*

Test system: HCT-116 cells
Experiment: MTT cell proliferation assay on HCT-116 cells
Format: cell-based
Description: For cell culture experiments various cancer cell lines, HCT-116 colon cancer, U87-MG glial tumor, MCF7 breast cancer cell lines were used. Cells were seeded with high glucose DMEM medium (Biosera) supplemented with 10% FBS (Gibco) and 1× penicillin/streptomycin (Multicell). Twenty-four hours prior to molecule treatment, 10,000 cells were seeded into each well of 24-well cell culture plates. Molecules were used by preparing 4 mM stock solution in DMSO (Amresco). For molecule treatment, molecule stock solutions were diluted in DMEM with 10% FBS and added onto cells in each corresponding well. Final concentration of vehicle DMSO was 2% at maximum. […] We calculated the number of cells to be seeded to make sure that none of the cells reaches more than 60% confluency during the treatment period, as higher plate confluency levels would slow down cell proliferation independently from the molecule treatment.
Values of half-maximal inhibitory concentration were (IC50) determined by MTT cell proliferation assays. […] 570 nm absorbance values were recorded and IC50 values were calculated by dose response—inhibition curves and nonlinear regression analysis on GraphPad Prism 8 software. […] Following the initial incubation day, molecules were added and after incubation with MTT at 37° C. for 4 hours, formazan was solubilized with DMSO (Sigma-Aldrich, St. Louis, USA) and absorbance was measured at 570 nm. […]

- IC50 (Homo sapiens, 72 h, HCT-116 colon cancer cells, single treatment, three days, 570 nm absorbance, read-out: IC50 (half-maximal inhibitory concentration), MTT cell proliferation): 17 µM
SMILES: CCC(C)C(NC(=O)C(Cc1c[nH]c2ccccc12)NC(=O)OC(C)(C)C)C(=O)NC(CC(C)C)C(N)=O (stereo not drawn) [compound of formula I] (Boc-Trp-Ile-Leu-NH2; configuration not given here)
- proliferation of HCT-116 cells compared to vehicle group (HCT-116 cells, MTT assay, FIG. 1): reduced proliferation and apoptotic cell structures
